The results in this text go back to patent US20240294541A1, “COMPOUNDS CONSTITUTING C20-MODIFIED SALINOMYCIN DERIVATIVES, A METHOD FOR OBTAINING THE SAME, A COMPOSITION CONTAINING THE SAME AND A USE OF SAID COMPOUNDS” (FILECLO SPOLKA Z OGRANICZONA ODPOWIEDZIALNOSCIA, priority 2021, published 2024).

Each structure is given as a SMILES string. Where two headings read alike, the source gives them in different places. Bounds are passed on as bounds.

Broadly, the IC50 is the concentration needed to halve the response being measured.

Common to all, as to type: cell-based
The subject of test [1] is A2780Cis (cisplatin-resistant human ovarian cancer). Nature of the test: In vitro cytotoxicity, SRB assay, A2780Cis. The note with it: for IC50: Homo sapiens, A2780cis, read-out: IC50 (nM) A2780Cis.
Test [2] concerns BALB/3T3 (normal mouse fibroblasts). Nature of the test: In vitro cytotoxicity, SRB assay, normal BALB/3T3 fibroblasts.
Test [3] relates to MV-4-11 (human biphenotypic leukaemia). The test can be described thus: In vitro cytotoxicity, MTT assay, MV-4-11. The conditions noted are these: for IC50: Homo sapiens, MV4-11, read-out: IC50 (nM) MV4-11. A general note: Formazan colour is commonly taken as a measure of viable cells.
The mark [4] stands for this setting: Table 5, BALB/3T3 normal mouse fibroblasts, read-out: IC50 (nM) BALB3T3 normal cells.

For `CC[C@@H](C(=O)[C@@H](C)[C@@H](O)[C@H](C)[C@@H]1O[C@@H]([C@@H](CC)C(=O)O)CC[C@@H]1C)[C@H]1O[C@]2(C=C[C@@H](NC(=O)OCCC#N)[C@]3(CC[C@@](C)([C@H]4CC[C@](O)(CC)[C@H](C)O4)O3)O2)[C@H](C)C[C@@H]1C` [FLC-00509-1•Na], in test [1], the “SI A2780Cis” value came to 14.7. Moreover, the concentration for half-maximal inhibition (IC50) in test [1] worked out at 16.7 nM; in test [2] (setting [4]), 246 nM; in test [3] it was 22.6 nM. For the same compound, the “SI MV4-11” value in test [3] is on record as 10.9.
Taken in the same sequence, the figures for `CC[C@@H](C(=O)[C@@H](C)[C@@H](O)[C@H](C)[C@@H]1O[C@@H]([C@@H](CC)C(=O)O)CC[C@@H]1C)[C@H]1O[C@]2(C=C[C@@H](NC(=O)N3CCN(C)CC3)[C@]3(CC[C@@](C)([C@H]4CC[C@](O)(CC)[C@H](C)O4)O3)O2)[C@H](C)C[C@@H]1C` [FLC-00515-1•Na] were 10.6, 357 nM, 3790 nM, 400 nM and 9.5.
Consider `CC[C@@H](C(=O)[C@@H](C)[C@@H](O)[C@H](C)[C@@H]1O[C@@H]([C@@H](CC)C(=O)O)CC[C@@H]1C)[C@H]1O[C@]2(C=C[C@@H](NC(=O)N3CCN(S(C)(=O)=O)C3=O)[C@]3(CC[C@@](C)([C@H]4CC[C@](O)(CC)[C@H](C)O4)O3)O2)[C@H](C)C[C@@H]1C` [FLC-00519-1•Na], for which, in test [1], the “SI A2780Cis” value is 5.3 and the IC50 is 1190 nM. The concentration for half-maximal inhibition (IC50) in test [2] (setting [4]) turned out to be 6370 nM. For the same compound, in test [3], the “SI MV4-11” value was found to be 4.0 and the IC50 was 1590 nM.
The corresponding values for `CC[C@@H](C(=O)[C@@H](C)[C@@H](O)[C@H](C)[C@@H]1O[C@@H]([C@@H](CC)C(=O)O)CC[C@@H]1C)[C@H]1O[C@]2(C=C[C@@H](NC(=O)OCCCCl)[C@]3(CC[C@@](C)([C@H]4CC[C@](O)(CC)[C@H](C)O4)O3)O2)[C@H](C)C[C@@H]1C` [FLC-00530-1•Na] are 24.0, 2.6 nM, 62.5 nM, 9.7 and 6.42 nM.
`CC[C@@H](C(=O)[C@@H](C)[C@@H](O)[C@H](C)[C@@H]1O[C@@H]([C@@H](CC)C(=O)O)CC[C@@H]1C)[C@H]1O[C@]2(C=C[C@@H](NC(=O)OC(C(F)(F)F)C(F)(F)F)[C@]3(CC[C@@](C)([C@H]4CC[C@](O)(CC)[C@H](C)O4)O3)O2)[C@H](C)C[C@@H]1C` [FLC-00531-1•Na]: in test [1], the “SI A2780Cis” value is given as 13.2 and the IC50 was found to be 11 nM. Further, the IC50 in test [2] (Mus musculus, BALB/3T3, read-out: IC50 (nM) BALB3T3 normal cells) came to 145 nM. In addition, in test [3], the “SI MV4-11” value is recorded as 6.2 and the IC50 worked out at 23.3 nM.
For the compound `CC[C@@H](C(=O)[C@@H](C)[C@@H](O)[C@H](C)[C@@H]1O[C@@H]([C@@H](CC)C(=O)O)CC[C@@H]1C)[C@H]1O[C@]2(C=C[C@@H](NC(=O)CC(C)(C)C)[C@]3(CC[C@@](C)([C@H]4CC[C@](O)(CC)[C@H](C)O4)O3)O2)[C@H](C)C[C@@H]1C` [FLC-00534-1•Na], in test [1], the “SI A2780Cis” value stood at 50.7 and the IC50 is 1.28 nM. Further, the IC50 in test [2] (setting [4]) was found to be 64.9 nM. In test [3], the “SI MV4-11” value came out at 42.4 and the concentration for half-maximal inhibition (IC50) amounted to 1.53 nM.
The corresponding values for `CC[C@@H](C(=O)[C@@H](C)[C@@H](O)[C@H](C)[C@@H]1O[C@@H]([C@@H](CC)C(=O)O)CC[C@@H]1C)[C@H]1O[C@]2(C=C[C@@H](NC(=O)N(C)C)[C@]3(CC[C@@](C)([C@H]4CC[C@](O)(CC)[C@H](C)O4)O3)O2)[C@H](C)C[C@@H]1C` [FLC-00538-1•Na] are 22.4, 42.2 nM, 943 nM, 9.2 and 103 nM.
The corresponding values for `CC[C@@H](C(=O)[C@@H](C)[C@@H](O)[C@H](C)[C@@H]1O[C@@H]([C@@H](CC)C(=O)O)CC[C@@H]1C)[C@H]1O[C@]2(C=C[C@@H](NC(=O)NCCCOC)[C@]3(CC[C@@](C)([C@H]4CC[C@](O)(CC)[C@H](C)O4)O3)O2)[C@H](C)C[C@@H]1C` [FLC-00539-1•Na] are 46.1, 7.06 nM, 326 nM, 11.9 and 27.3 nM.
As to `CC[C@@H](C(=O)[C@@H](C)[C@@H](O)[C@H](C)[C@@H]1O[C@@H]([C@@H](CC)C(=O)O)CC[C@@H]1C)[C@H]1O[C@]2(C=C[C@@H](NC(=O)N3CCOCC3)[C@]3(CC[C@@](C)([C@H]4CC[C@](O)(CC)[C@H](C)O4)O3)O2)[C@H](C)C[C@@H]1C` [FLC-00540-1•Na], in test [1], the “SI A2780Cis” value is recorded as 24.1 and the IC50 stood at 37 nM. Also, the concentration for half-maximal inhibition (IC50) in test [2] (setting [4]) is 891 nM. Also, in test [3], the “SI MV4-11” value was found to be 16.5 and the half-maximal inhibitory concentration (IC50) stood at 53.9 nM.
The corresponding values for `CC[C@@H](C(=O)[C@@H](C)[C@@H](O)[C@H](C)[C@@H]1O[C@@H]([C@@H](CC)C(=O)O)CC[C@@H]1C)[C@H]1O[C@]2(C=C[C@@H](NC(=O)N3CCC3)[C@]3(CC[C@@](C)([C@H]4CC[C@](O)(CC)[C@H](C)O4)O3)O2)[C@H](C)C[C@@H]1C` [FLC-00543-1•Na] are 15.2, 67 nM, 1020 nM, 5.9 and 174 nM.
`CC[C@@H](C(=O)[C@@H](C)[C@@H](O)[C@H](C)[C@@H]1O[C@@H]([C@@H](CC)C(=O)O)CC[C@@H]1C)[C@H]1O[C@]2(C=C[C@@H](NC(=O)NCC3CCC(F)(F)CC3)[C@]3(CC[C@@](C)([C@H]4CC[C@](O)(CC)[C@H](C)O4)O3)O2)[C@H](C)C[C@@H]1C` [FLC-00545-1•Na]: in test [1], the “SI A2780Cis” value is recorded as 186.6 and the concentration for half-maximal inhibition (IC50) was 0.57 nM. The IC50 in test [2] (setting [4]) amounted to 106 nM. For the same compound, in test [3], the “SI MV4-11” value turned out to be 62.8 and the IC50 was found to be 1.68 nM.
The corresponding values for `CC[C@@H](C(=O)[C@@H](C)[C@@H](O)[C@H](C)[C@@H]1O[C@@H]([C@@H](CC)C(=O)O)CC[C@@H]1C)[C@H]1O[C@]2(C=C[C@@H](NC(=O)NCCCN3CCS(=O)(=O)CC3)[C@]3(CC[C@@](C)([C@H]4CC[C@](O)(CC)[C@H](C)O4)O3)O2)[C@H](C)C[C@@H]1C` [FLC-00546-1•Na] are 19.5, 112 nM, 2180 nM, 8.5 and 258 nM.
Taken in the same sequence, the figures for `CC[C@@H](C(=O)[C@@H](C)[C@@H](O)[C@H](C)[C@@H]1O[C@@H]([C@@H](CC)C(=O)O)CC[C@@H]1C)[C@H]1O[C@]2(C=C[C@@H](NC(=O)OCCc3scnc3C)[C@]3(CC[C@@](C)([C@H]4CC[C@](O)(CC)[C@H](C)O4)O3)O2)[C@H](C)C[C@@H]1C` [FLC-00547-1•Na] were “≈56.2”, under 1.38 nM, 77.6 nM, 35.2 and 2.21 nM.
Taken in the same sequence, the figures for `CC[C@@H](C(=O)[C@@H](C)[C@@H](O)[C@H](C)[C@@H]1O[C@@H]([C@@H](CC)C(=O)O)CC[C@@H]1C)[C@H]1O[C@]2(C=C[C@@H](NC(=O)C(C)(C)C)[C@]3(CC[C@@](C)([C@H]4CC[C@](O)(CC)[C@H](C)O4)O3)O2)[C@H](C)C[C@@H]1C` [FLC-00550-1•Na] were 42.1, 10.6 nM, 448 nM, 26.6 and 16.9 nM.
Consider `CC[C@@H](C(=O)[C@@H](C)[C@@H](O)[C@H](C)[C@@H]1O[C@@H]([C@@H](CC)C(=O)O)CC[C@@H]1C)[C@H]1O[C@]2(C=C[C@@H](NC(=O)OC(C)(C)C#N)[C@]3(CC[C@@](C)([C@H]4CC[C@](O)(CC)[C@H](C)O4)O3)O2)[C@H](C)C[C@@H]1C` [FLC-00551-1•Na], for which, in test [1], the “SI A2780Cis” value turned out to be 12.5 and the IC50 came to 63.6 nM. Besides, the IC50 in test [2] (setting [4]) worked out at 792 nM. Also, in test [3], the “SI MV4-11” value is on record as 9.8 and the half-maximal inhibitory concentration (IC50) came out at 81 nM.
Taken in the same sequence, the figures for `C#CC(C)(C)OC(=O)N[C@@H]1C=C[C@]2(O[C@H]([C@@H](CC)C(=O)[C@@H](C)[C@@H](O)[C@H](C)[C@@H]3O[C@@H]([C@@H](CC)C(=O)O)CC[C@@H]3C)[C@@H](C)C[C@H]2C)O[C@@]12CC[C@@](C)([C@H]1CC[C@](O)(CC)[C@H](C)O1)O2` [FLC-00552-1•Na] were 46.7, 4.02 nM, 187 nM, 32.1 and 5.84 nM.
For `CC[C@@H](C(=O)[C@@H](C)[C@@H](O)[C@H](C)[C@@H]1O[C@@H]([C@@H](CC)C(=O)O)CC[C@@H]1C)[C@H]1O[C@]2(C=C[C@@H](NC(=O)OC3CCN(C)CC3)[C@]3(CC[C@@](C)([C@H]4CC[C@](O)(CC)[C@H](C)O4)O3)O2)[C@H](C)C[C@@H]1C` [FLC-00559-1•Na], the “SI A2780Cis” value in test [1] is 16.2. In addition, the half-inhibitory concentration (IC50) amounted to 330 nM in test [1], 5340 nM in test [2] (setting [4]) and 300 nM in test [3]. The “SI MV4-11” value in test [3] came out at 17.8.
The corresponding values for `CC[C@@H](C(=O)[C@@H](C)[C@@H](O)[C@H](C)[C@@H]1O[C@@H]([C@@H](CC)C(=O)O)CC[C@@H]1C)[C@H]1O[C@]2(C=C[C@@H](NC(=O)N3CCS(=O)(=O)CC3)[C@]3(CC[C@@](C)([C@H]4CC[C@](O)(CC)[C@H](C)O4)O3)O2)[C@H](C)C[C@@H]1C` [FLC-00560-1•Na] are 18.8, 283 nM, 5330 nM, 339 nM and 15.7.
The corresponding values for `CC[C@@H](C(=O)[C@@H](C)[C@@H](O)[C@H](C)[C@@H]1O[C@@H]([C@@H](CC)C(=O)O)CC[C@@H]1C)[C@H]1O[C@]2(C=C[C@@H](NC(=O)NCc3cccnc3)[C@]3(CC[C@@](C)([C@H]4CC[C@](O)(CC)[C@H](C)O4)O3)O2)[C@H](C)C[C@@H]1C` [FLC-00566-1•Na] are 47.6, 122 nM, 5820 nM, 255 nM and 22.8.
